Some test systems named below: DU-145; MDA-N; MDA-MB-231; A549; SF-295; SR; T47D; ACHN; K562; OVCAR-8; SK-MEL-28; NCI/ADR-RES; NCI-H460; HOP-92; A498; IGROV-1; SN12C; RXF 393; M14; OVCAR-4.
Common to all, as to assay: growth of human tumour cells (NCI), 48 h

Consider ten compounds from ChEMBL document CHEMBL1201862, “PubChem BioAssay data set” (2004).

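How tested: cells in 96-well plates exposed to compound for 48 hours at five concentrations. GI50 is the concentration that inhibits growth by half.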 Active and inactive are the calls of the source. No stated cut-off is given here; in the data, active = GI50 up to about 1.1 µM and inactive = higher.

Take `O=C1C=C2CO[C@H]3OC[C@H](O)[C@@H]1[C@@H]23`: the GI50 in the experiment on DU-145 is > 100 µM (inactive); with MDA-N, 35.2 µM (inactive); in the experiment with MDA-MB-231 it was 73.3 µM (inactive); in the experiment on A549 it was > 100 µM (inactive); in the experiment with SF-295 it was > 100 µM (inactive); in the experiment on SR it was 22.6 µM (inactive). The GI50 in the experiment on T47D was 25.5 µM (inactive); in the experiment with ACHN, > 100 µM (inactive); in the experiment on K562, 26.9 µM (inactive); with OVCAR-8, 32 µM (inactive); in the experiment with SK-MEL-28 it was 33.6 µM (inactive); in the experiment with NCI/ADR-RES, > 100 µM (inactive). Moreover, the GI50 in the experiment on NCI-H460 is > 100 µM (inactive); in the experiment on HOP-92, 46.3 µM (inactive); with A498 it was > 100 µM (inactive); in the experiment on IGROV-1, > 100 µM (inactive); in the experiment on SN12C, 22.9 µM (inactive); in the experiment on RXF 393 it was 19.9 µM (inactive). For the same compound, the GI50 in the experiment with M14 is > 100 µM (inactive).

Take `Clc1ccc(OCc2nnc(COc3ccc(OCc4nnc(COc5ccc(Cl)cc5Cl)o4)c(Cl)c3)o2)c(Cl)c1`: the GI50 in the experiment on DU-145 is 71.3 µM (inactive); in the experiment with MDA-N, 47.3 µM (inactive); in the experiment with MDA-MB-231, 21.7 µM (inactive); in the experiment on A549 it was 32 µM (inactive); in the experiment on SF-295, 33.3 µM (inactive); in the experiment on SR it was 20.9 µM (inactive). For the same compound, the GI50 with T47D is 78.3 µM (inactive); with ACHN, 40.6 µM (inactive); in the experiment on K562, 24.3 µM (inactive); in the experiment with OVCAR-8 it was 41.4 µM (inactive); in the experiment on SK-MEL-28, 46.5 µM (inactive); in the experiment with NCI/ADR-RES, 24.5 µM (inactive). The GI50 in the experiment with NCI-H460 is 72.4 µM (inactive); in the experiment on HOP-92, 7.48 µM (inactive); in the experiment on A498, 48.3 µM (inactive); in the experiment on IGROV-1, 17.7 µM (inactive); with SN12C, 40.3 µM (inactive); in the experiment on RXF 393, 20.1 µM (inactive). Also, in the experiment on M14, the GI50 is 76.4 µM (inactive).

With `CC(=O)O[C@H]1CC[C@H]2[C@@H]3CCC4=C(C(=O)C=CC4(C)OC(C)=O)[C@H]3CC[C@]12C` (some centres undefined), the GI50 with DU-145 is > 100 µM (inactive); in the experiment with MDA-N, 34.6 µM (inactive); in the experiment on MDA-MB-231 it was 41 µM (inactive); in the experiment with A549 it was 90.2 µM (inactive); with SF-295 it was 98.4 µM (inactive); with SR, 47.3 µM (inactive). For the same compound, the GI50 in the experiment on T47D was > 100 µM (inactive); in the experiment on ACHN, 54 µM (inactive); in the experiment with K562 it was 33.1 µM (inactive); in the experiment with OVCAR-8, 39.5 µM (inactive); with OVCAR-4, > 100 µM (inactive); with SK-MEL-28, > 100 µM (inactive). Moreover, the GI50 with NCI/ADR-RES is 43.7 µM (inactive); with NCI-H460, 42.3 µM (inactive); in the experiment with HOP-92, 63.2 µM (inactive); in the experiment with A498, > 100 µM (inactive); with IGROV-1 it was > 100 µM (inactive); with SN12C, 41.5 µM (inactive). The GI50 with RXF 393 was 32.1 µM (inactive); with M14 it was 46.8 µM (inactive).

As for `CS/C(N)=N/c1cccc2ccccc12`, the GI50 in the experiment with DU-145, in the experiment with MDA-N, in the experiment with MDA-MB-231, in the experiment with A549, in the experiment on SF-295 and in the experiment with SR was > 10 µM (inactive) each time. Also, the GI50 in the experiment on T47D, in the experiment on ACHN, in the experiment on K562, in the experiment with OVCAR-8, with OVCAR-4 and in the experiment on SK-MEL-28 was > 10 µM (inactive) each time. Moreover, the GI50 in the experiment with NCI/ADR-RES, with NCI-H460, in the experiment with HOP-92, with A498, in the experiment on IGROV-1 and in the experiment with SN12C was > 10 µM (inactive) throughout. For the same compound, the GI50 in the experiment with RXF 393 and in the experiment with M14 was > 10 µM (inactive) throughout.

Regarding `S=C(N/N=C/c1ccccn1)N1CCCCC1`, the GI50 is 0.243 µM (active) in the experiment on DU-145; 0.271 µM (active) in the experiment with MDA-N; < 0.01 µM (active) with MDA-MB-231; < 0.0129 µM (active) in the experiment on A549; 0.121 µM (active) with SF-295; < 0.01 µM (active) in the experiment on SR. For the same compound, the GI50 was < 0.01 µM (active) in the experiment with T47D; < 0.01 µM (active) in the experiment with ACHN; < 0.01 µM (active) in the experiment with K562; < 0.01 µM (active) in the experiment with OVCAR-8; 0.297 µM (active) with SK-MEL-28; < 0.01 µM (active) in the experiment with NCI/ADR-RES. Besides, the GI50 is < 0.019 µM (active) in the experiment on NCI-H460; 0.212 µM (active) with HOP-92; < 0.0461 µM (active) in the experiment with A498; < 0.01 µM (active) in the experiment with IGROV-1; < 0.0394 µM (active) in the experiment on SN12C; 0.0705 µM (active) with RXF 393. Moreover, the GI50 in the experiment with M14 was < 0.01 µM (active).

`CCCCc1ccc(Nc2nc(Cl)c3ncn(COCCOC(C)=O)c3n2)cc1`: the GI50 in the experiment with DU-145 was 16 µM (inactive); in the experiment with MDA-N it was 18.8 µM (inactive); in the experiment on MDA-MB-231 it was 15.3 µM (inactive); in the experiment on A549 it was 20.8 µM (inactive); in the experiment with SF-295, 17.4 µM (inactive); with SR, 21.2 µM (inactive). Also, the GI50 in the experiment with T47D is 22.8 µM (inactive); in the experiment with ACHN it was 17.5 µM (inactive); in the experiment on K562 it was 6.04 µM (inactive); in the experiment with OVCAR-8, 18.5 µM (inactive); in the experiment with OVCAR-4, 33.7 µM (inactive); in the experiment on NCI/ADR-RES, 20 µM (inactive). In addition, the GI50 is 17.6 µM (inactive) in the experiment with NCI-H460; 2.06 µM (inactive) in the experiment on HOP-92; 25.5 µM (inactive) in the experiment on A498; 15.7 µM (inactive) with IGROV-1; 21.8 µM (inactive) in the experiment with SN12C; 16.9 µM (inactive) with RXF 393. Also, the GI50 in the experiment with M14 is 18 µM (inactive).

On to `CN1CCN(C(=O)CCNC(=O)Cc2ccc(C(=O)c3ccccc3)cc2)CC1`, for which the GI50 is > 100 µM (inactive) in the experiment on DU-145; 15.5 µM (inactive) in the experiment on MDA-N; > 100 µM (inactive) with MDA-MB-231; > 100 µM (inactive) in the experiment on A549; > 100 µM (inactive) in the experiment on SF-295; > 100 µM (inactive) in the experiment with SR. For the same compound, the GI50 was > 100 µM (inactive) in the experiment on T47D; > 100 µM (inactive) in the experiment with ACHN; 27.9 µM (inactive) with K562; > 100 µM (inactive) with OVCAR-8; > 100 µM (inactive) in the experiment with OVCAR-4; > 100 µM (inactive) with SK-MEL-28. The GI50 was > 100 µM (inactive) with NCI/ADR-RES; > 100 µM (inactive) with NCI-H460; > 100 µM (inactive) with HOP-92; 83.4 µM (inactive) in the experiment with A498; > 100 µM (inactive) in the experiment with IGROV-1; > 100 µM (inactive) in the experiment on SN12C. Also, the GI50 in the experiment with RXF 393 and with M14 was > 100 µM (inactive) each time.

Consider `CC1=NN(c2ccccc2)C(=O)/C1=C/c1ccc(O)cc1`, for which the GI50 was > 100 µM (inactive) in the experiment with DU-145; > 100 µM (inactive) in the experiment on MDA-N; > 100 µM (inactive) with MDA-MB-231; > 100 µM (inactive) with A549; > 100 µM (inactive) in the experiment on SF-295; 84.3 µM (inactive) in the experiment on SR. The GI50 with T47D, with ACHN, in the experiment on K562, in the experiment with OVCAR-8, with OVCAR-4 and with SK-MEL-28 was > 100 µM (inactive) each time. Besides, the GI50 in the experiment on NCI/ADR-RES, with NCI-H460, in the experiment on HOP-92, in the experiment with A498, in the experiment on IGROV-1 and with SN12C was > 100 µM (inactive) throughout. Further, the GI50 in the experiment with RXF 393 and in the experiment on M14 was > 100 µM (inactive) throughout.

Regarding `CN(C)CCCNC(=O)c1c(O)c2ccccc2[nH]c1=O`, the GI50 was > 100 µM (inactive) with DU-145; > 100 µM (inactive) in the experiment with MDA-N; > 100 µM (inactive) in the experiment on MDA-MB-231; > 100 µM (inactive) in the experiment on A549; 22.9 µM (inactive) in the experiment with SF-295; > 100 µM (inactive) in the experiment on SR. Moreover, the GI50 in the experiment with T47D, in the experiment with ACHN, with K562, with OVCAR-8, in the experiment on OVCAR-4 and in the experiment with SK-MEL-28 was > 100 µM (inactive) in each case. For the same compound, the GI50 with NCI/ADR-RES was 88.5 µM (inactive); in the experiment on NCI-H460 it was > 100 µM (inactive); in the experiment with HOP-92, 38.4 µM (inactive); with A498, > 100 µM (inactive); in the experiment on IGROV-1, 42 µM (inactive); in the experiment with SN12C it was > 100 µM (inactive). In the experiment on RXF 393, the GI50 was 95.7 µM (inactive).

With `Cc1ccc(S(=O)(=O)NNC(=O)c2cc(C)c(C)cc2N)cc1`, the GI50 is > 100 µM (inactive) in the experiment with DU-145; > 100 µM (inactive) in the experiment with MDA-N; > 100 µM (inactive) in the experiment with MDA-MB-231; > 100 µM (inactive) in the experiment on SF-295; > 100 µM (inactive) in the experiment on SR; 96.6 µM (inactive) in the experiment on T47D. Moreover, the GI50 with ACHN is > 100 µM (inactive); with K562 it was > 100 µM (inactive); in the experiment with OVCAR-8, 60.4 µM (inactive); in the experiment on OVCAR-4, > 100 µM (inactive); in the experiment on SK-MEL-28 it was > 100 µM (inactive); with NCI/ADR-RES, > 100 µM (inactive). For the same compound, the GI50 in the experiment on NCI-H460, in the experiment on HOP-92, in the experiment on A498, with IGROV-1, in the experiment with SN12C and with RXF 393 was > 100 µM (inactive) throughout. For the same compound, the GI50 in the experiment with M14 was > 10 µM (inactive).
